Test results: publication PMC6767220, “Active Anti-Inflammatory and Hypolipidemic Derivatives of Lorazepam” (Molecules, 2019)
Entries after “also recorded” stand apart in the source; their conditions may differ. Where two headings read alike, the source gives them in different places.

Columns and labels:
soybean lipoxygenase-1 = molecular target: T1, soybean lipoxygenase-1 (Glycine max, UniProt P08170); test: Inhibition of soybean lipoxygenase; assay type: biochemical
T1 sequence (P08170 1-839): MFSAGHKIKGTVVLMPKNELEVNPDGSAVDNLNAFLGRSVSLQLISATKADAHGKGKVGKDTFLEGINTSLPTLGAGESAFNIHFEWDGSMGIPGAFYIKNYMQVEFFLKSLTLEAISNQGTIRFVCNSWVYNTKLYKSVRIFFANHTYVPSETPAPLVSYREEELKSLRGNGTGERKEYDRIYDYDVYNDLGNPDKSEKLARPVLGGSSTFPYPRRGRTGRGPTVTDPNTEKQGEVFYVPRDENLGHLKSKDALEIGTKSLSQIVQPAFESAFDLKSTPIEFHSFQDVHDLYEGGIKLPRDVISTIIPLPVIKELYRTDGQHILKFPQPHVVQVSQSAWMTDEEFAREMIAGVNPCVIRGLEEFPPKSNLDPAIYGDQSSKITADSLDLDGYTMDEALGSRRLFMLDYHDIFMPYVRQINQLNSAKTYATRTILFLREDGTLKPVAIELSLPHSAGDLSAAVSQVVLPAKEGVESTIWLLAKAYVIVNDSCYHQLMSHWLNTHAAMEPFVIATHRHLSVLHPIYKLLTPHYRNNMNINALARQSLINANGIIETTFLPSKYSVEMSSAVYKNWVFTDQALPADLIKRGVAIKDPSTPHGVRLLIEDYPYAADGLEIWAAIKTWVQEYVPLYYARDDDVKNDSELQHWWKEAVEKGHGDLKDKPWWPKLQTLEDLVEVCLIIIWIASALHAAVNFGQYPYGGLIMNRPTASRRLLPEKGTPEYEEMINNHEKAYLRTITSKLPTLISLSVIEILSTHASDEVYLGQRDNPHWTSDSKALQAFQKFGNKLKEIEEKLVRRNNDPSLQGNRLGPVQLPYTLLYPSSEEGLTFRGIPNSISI
Experimental: The reaction mixture contained the test compounds dissolved in ethanol and soybean lipoxygenase (250 U/mL) in Tris buffer (pH 9). The reaction was initiated by the addition of sodium linoleate (0.1 mM) and monitored for 7 min at 28 °C, by recording the absorbance of a conjugated diene structure at 234 nm. For the estimation of the type of inhibition, the above experiments were repeated, using sodium linoleate at 1 mM, which is higher than the saturating substrate concentration.

[1] = system: Triton WR1339 (tyloxapol) induced hyperlipidemia; test: Triton WR1339 (tyloxapol) induced hyperlipidemia: plasma TC, TG, LDL-C; assay type: in vivo; conditions: ip, rat plasma, 24 h, tyloxapol 200 mg/kg i.p.; for inhibition in vivo at 50 µmol/kg: dose i.p. 50 µmol/kg; for inhibition in vivo at 150 µmol/kg: dose i.p. 150 µmol/kg; for inhibition in vivo at 300 µmol/kg: dose i.p. 300 µmol/kg; for inhibition in vivo at 500 µmol/kg: dose i.p. 500 µmol/kg
[2] = system: carrageenan-induced rat paw oedema; test: Carrageenan-induced rat paw oedema; assay type: in vivo; conditions: ip, i.p. 0.15 mmol/kg, 3.5 h post administration, vs controls, read-out: % Oedema Reduction
Experimental: An aqueous solution of carrageenan was prepared (1% w/v) and 0.1 mL of this was injected i.d. into the right hind paw of female rats; the left paw served as control. The tested compounds (suspended in water with a few drops of Tween 80) were given intra peritoneally (i.p.) (0.15 mmol/kg) 5 min prior to the carrageenan injection. After 3.5 h the hind paws were weighed separately. The produced oedema was estimated as paw weight increase.

[3] = system: rat hepatic microsomal membrane lipid peroxidation; test: Inhibition of rat hepatic microsomal membrane lipid peroxidation induced by ferrous ascorbate; assay type: biochemical; conditions: for Antioxidant activity (lipid peroxidation and DPPH experiments): lipid peroxidation inhibition and DPPH interaction, result in words; for IC50: rat hepatic microsomal fraction, ferrous ascorbate, 45 min incubation
Experimental: The incubation mixture contained heat-inactivated rat hepatic microsomal fraction, ascorbic acid (0.2 mM) in Tris–HCl/KCl buffer (pH 7.4) and the test compounds dissolved in dimethylsulphoxide. The reaction was initiated by FeSO4 (10 µM) and the mixture was incubated at 37 °C. Aliquots were taken at various time intervals for 45 min. Lipid peroxidation was assessed spectrophotometrically (535 against 600 nm) by the determination of 2-thiobarbituric acid (TBA) reactive material.

[4] = Interaction with the stable radical DPPH; conditions: DPPH 200 µΜ, 30 min incubation
Experimental: Compounds (in absolute ethanol, final concentration 50–200 µM) were added to an equal volume of an ethanolic solution of DPPH (final concentration 200 µM) at room temperature (22 ± 2 °C). Absorbance (517 nm) was recorded after 30 min [22].

[5] = sodium linoleate 0.1 mM, 7 min incubation, read-out: Lipoxygenase IC50
[6] = read-out: % Reduction LDL-C (LDL cholesterol)
[7] = read-out: % Reduction TC (total cholesterol)
[8] = read-out: % Reduction TG (triglycerides)
[9] = sodium linoleate 0.1 mM, 7 min incubation

Row | Structure (SMILES) | IC50 (soybean lipoxygenase-1; [5]) [µM] | inhibition in vivo at 50 µmol/kg [1, 6] [%] | inhibition in vivo at 50 µmol/kg [1, 7] [%] | inhibition in vivo at 50 µmol/kg [1, 8] [%] | melting point [°C] | inhibition in vivo at 150 µmol/kg [2] [%] | other results
1 | CC(C)(C)c1cc(/C=C/C(=O)O)cc(C(C)(C)C)c1O [BHA, (E)-3-(3,5-di-tert-butyl-4-hydroxyphenyl)acrylic acid, reference compound] | > 300 |  |  |  |  |  | 
2 | CC(C)Cc1ccc(C(C)C(=O)OC2N=C(c3ccccc3Cl)c3cc(Cl)ccc3NC2=O)cc1 (centres unmarked) [Compound 1, 7-Chloro-5-(2-chlorophenyl)-2-oxo-2,3-dihydro-1H-benzo[e][1,4]diazepin-3-yl 2-(4-isobutylphenyl) propanoate] |  | 43 | 44 | 57 | 105 to 122 | 68 | Lipoxygenase % Inhibition (soybean lipoxygenase-1; compound 50 µΜ, sodium linoleate 0.1 mM, 7 min incubation): 14%/50 µΜ; inhibition in vivo at 150 µmol/kg [1, 6]: 56%; inhibition in vivo at 150 µmol/kg [1, 7]: 82%; inhibition in vivo at 150 µmol/kg [1, 8]: 65%
3 | COc1ccc2cc(C(C)C(=O)OC3N=C(c4ccccc4Cl)c4cc(Cl)ccc4NC3=O)ccc2c1 (centres unmarked) [Compound 2, 7-Chloro-5-(2-chlorophenyl)-2-oxo-2,3-dihydro-1H-benzo[e][1,4]diazepin-3-yl 2-(6-methoxynaphthalen-2-yl)propanoate] |  | 42 | 60 | 71 | 136 to 139 | 46 | Lipoxygenase IC50 (soybean lipoxygenase-1; [9]): -
4 | CC(C(=O)OC1N=C(c2ccccc2Cl)c2cc(Cl)ccc2NC1=O)c1cccc(C(=O)c2ccccc2)c1 (centres unmarked) [Compound 3, 7-Chloro-5-(2-chlorophenyl)-2-oxo-2,3-dihydro-1H-benzo[e][1,4]diazepin-3-yl 2-(3-benzoylphenyl)propanoate] | 84 |  |  |  | 195 to 201 | 65 | 
5 | COc1ccc2c(c1)c(CC(=O)OC1N=C(c3ccccc3Cl)c3cc(Cl)ccc3NC1=O)c(C)n2C(=O)c1ccc(Cl)cc1 (centres unmarked) [Compound 4, 7-Chloro-5-(2-chlorophenyl)-2-oxo-2,3-dihydro-1H-benzo[e][1,4]diazepin-3-yl 2-(1-(4-chlorobenzoyl)-5-methoxy-2-methyl-1H-indol-3-yl)acetate] | 86 | 60 | 59 | 59 | 189 to 191 | 67 | 
6 | Cc1c(Cl)cccc1Nc1ccccc1C(=O)OC1N=C(c2ccccc2Cl)c2cc(Cl)ccc2NC1=O (centres unmarked) [Compound 5, 7-Chloro-5-(2-chlorophenyl)-2-oxo-2,3-dihydro-1H-benzo[e][1,4]diazepin-3-yl 2-((3-chloro-2-methylphenyl)amino)benzoate] |  | 48 | 56 | 57 | 206 to 207 | 55 | Lipoxygenase % Inhibition (soybean lipoxygenase-1; compound 100 µΜ, sodium linoleate 0.1 mM, 7 min incubation): 22%/100 µΜ
7 | O=C(CCCCC1CCSS1)OC1N=C(c2ccccc2Cl)c2cc(Cl)ccc2NC1=O (centres unmarked) [Compound 6, 7-Chloro-5-(2-chlorophenyl)-2-oxo-2,3-dihydro-1H-benzo[e][1,4]diazepin-3-yl 5-(1,2-dithiolan-3-yl)pentanoate] |  | 47 | 48 | 39 | 184 to 189 | 39 | IC50 (soybean lipoxygenase-1): 60 µM; inhibition in vivo at 150 µmol/kg [1, 6]: 60%; inhibition in vivo at 150 µmol/kg [1, 7]: 82%; inhibition in vivo at 150 µmol/kg [1, 8]: 41%; Antioxidant activity (lipid peroxidation and DPPH experiments) [3]: do not express any antioxidant activity; also recorded: inactive
8 | Cc1c(C)c2c(c(C)c1O)CCC(C)(C(=O)OC1N=C(c3ccccc3Cl)c3cc(Cl)ccc3NC1=O)O2 (centres unmarked) [Compound 7, 7-Chloro-5-(2-chlorophenyl)-2-oxo-2,3-dihydro-1H-benzo[e][1,4]diazepin-3-yl 6-hydroxy-2,5,7,8-tetramethylchroman-2-carboxylate] |  |  |  |  | 138 to 144 | 56 | Lipoxygenase IC50 (soybean lipoxygenase-1; [9]): -; inhibition in vivo at 150 µmol/kg [1, 6]: 69%; inhibition in vivo at 150 µmol/kg [1, 7]: 72%; inhibition in vivo at 150 µmol/kg [1, 8]: 64%; IC50 [3]: 2.5 µM; Percent Interaction with DPPH ([4]; compound 50 µΜ): 46%; Percent Interaction with DPPH ([4]; compound 100 µΜ): 82%; Percent Interaction with DPPH ([4]; compound 200 µΜ): 91%
9 | O=C(Cc1c[nH]c2ccccc12)OC1N=C(c2ccccc2Cl)c2cc(Cl)ccc2NC1=O (centres unmarked) [Compound 9, 7-Chloro-5-(2-chlorophenyl)-2-oxo-2,3-dihydro-1H-benzo[e][1,4]diazepin-3-yl 2-(1H-indol-3-yl)acetate] |  |  |  |  | 257 to 258 | 43 | IC50 (soybean lipoxygenase-1): 255 µM; Antioxidant activity (lipid peroxidation and DPPH experiments) [3]: do not express any antioxidant activity
10 | CC(C)Cc1ccc(C(C)C(=O)O)cc1 (centres unmarked) [Ibuprofen, reference compound] |  |  |  |  |  | 36 | inhibition in vivo at 300 µmol/kg [1, 6]: 42%; inhibition in vivo at 300 µmol/kg [1, 7]: 41%; inhibition in vivo at 300 µmol/kg [1, 8]: 38%
11 | COc1ccc2c(c1)c(CC(=O)O)c(C)n2C(=O)c1ccc(Cl)cc1 [Indomethacin, reference compound] |  |  |  |  |  | 42 | 
12 | COc1ccc2cc([C@H](C)C(=O)O)ccc2c1 [Naproxen, reference compound] |  |  |  |  |  | 11 | inhibition in vivo at 500 µmol/kg [1, 6]: 26%; inhibition in vivo at 500 µmol/kg [1, 7]: 53%; inhibition in vivo at 500 µmol/kg [1, 8]: 44%
13 | Cc1c(Cl)cccc1Nc1ccccc1C(=O)O [Tolfenamic acid, reference compound] | 170 |  |  |  |  | 24 | 
14 | Cc1c(C)c2c(c(C)c1O)CCC(C)(C(=O)O)O2 (centres unmarked) [Trolox, 6-hydroxy-2,5,7,8-tetramethylchroman-2-carboxylic acid, reference compound] | > 300 |  |  |  |  |  | IC50 [3]: 25 µM; Percent Interaction with DPPH ([4]; compound 50 µΜ): 38%; Percent Interaction with DPPH ([4]; compound 100 µΜ): 90%; Percent Interaction with DPPH ([4]; compound 200 µΜ): 92%
